Test results: PMC7408072 (Pharmaceutics, 2020)

Experiments:
[1] = cited from earlier work
Experimental: Peptide-based drugs are prone to chemical degradation when presented to enzymes during systemic circulation. Therefore, the stability of the peptide constructs was examined in serum-supplemented media and during incubation in a state-of-the-art in vitro BBB model made up of primary BCECs co-cultured with primary rat astrocytes. Despite their common peptide nature, the stability varied markedly. […] The half-life of ^125I-labelled Tat ([…]) in mouse serum h ...

[2] = cited from earlier work; remark: listed apart in the source
Description: We detected 0.4% ± 0.1% of injected dose/g of TAMRA-Tat in mouse brain homogenate, which is in line with a previous study reporting 0.1% of injected dose/g of ^111In-DOTA-labelled Tat ([…]) following 1-h circulation in mice. Moreover, less TAMRA-Tat-NR2B9c and TAMRA-Tat-N-dimer appeared to accumulate in the brain compared to TAMRA-Tat. This observation is in agreement with the observed BBB permeation by the Tat-conjugated peptides in live mice, supporting our earlier notion that cargo conjugation to Tat impacts its resulting brain delivery.

[3] = tested on: bovine BCECs co-cultured with rat astrocytes; test: Peptide uptake into endothelial cells and astrocytes by confocal microscopy after fixation (bovine BBB model); type: cell-based; conditions: 10 µM or 100 µM TAMRA, 3 h, fixed cells, confocal microscopy (Figure S4)
Experimental: […] TEER was measured at room temperature using an Endohm 12 cup (World Precision Instruments, Sarasota, FL, USA) connected to a Millicell-ERS device (Millipore, Bedford, MA, USA). TEER was measured before application of the peptides and after each experiment. The bovine model had initial TEER values ranging from 771 to 1332 Ω·cm^2, whereas the mouse model had initial TEER values ranging from 136 to 217 Ω·cm^2.
To visualize the TAMRA-peptide taken up by the endothelial cells and astrocytes, the remaining filters (one per batch) from the permeation study using the in vitro bovine BBB model were prepared for confocal microscopy. After removal of the peptide solutions, the cells were fixed with 3% paraformaldehyde in PBS for 15 min at room temperature with horizontal shaking (90 rpm). The cells were washed thrice with PBS prior to permeabilization in 0.1% Triton X-100 in PBS for 5 min and blocking in 2% BSA in PBS for 30 min at room temperature with horizontal shaking (90 rpm). The filter inserts were cut out, divided into smaller pieces, and transferred to a 48-well plate to stain zonula ocludens-1 (ZO-1) in the BCECs and F-actin in the astrocytes. Filter pieces with BCECs facing upwards were incubated with a primary antibody directed against ZO-1 (1:100 in PBS with 2% BSA; Thermo Fischer Scientific, Bedford, MA, USA, no. 617300) for 2 h at room temperature. Subsequently, the filters were washed thrice for 5 min in PBS with 2% BSA prior to 30 min incubation with an Alexa-488-conjugated secondary antibody (1:100 in PBS with 2% BSA; Thermo Fischer Scientific, Bedford, MA, USA, no. A11008). Filter pieces with astrocytes facing upwards were incubated with Alexa-488-conjugated phalloidin (1:133 in PBS with 2% BSA; Thermo Fischer Scientific, Bedford, MA, USA) for 30 min at room temperature and washed thrice for 5 min in PBS with 2% BSA. The filter pieces were mounted on glass slides under coverslips using Immu-Mount™ mounting media and imaged using single wavelength excitation a Zeiss 510 laser-scanning confocal microscope (Carl Zeiss, Jena, Germany).

[4] = differentiation medium (cell media supplemented with 10% fetal bovine serum (FBS)); conditions: 37 °C, up to 4 h
[5] = luminal incubation on bovine brain endothelial cells co-cultured with rat astrocytes in FBS-free differentiation medium; conditions: 37 °C, up to 4 h

GRKKRRQRRRPPQ [^111In-DOTA-labelled Tat]
half-life in human serum [1]: 8.8 h
brain level following 1-h circulation in mice [2]: 0.1 % of injected dose/g

TAMRA [reference compound]
uptake of TAMRA as a single entity into the endothelial cells or the astrocytes [3]: not internalized

YGRKKRRQRRR [^125I-labelled Tat]
half-life in mouse serum [1]: 2.7 min

TAMRA-KLSSIESDV
not cleaved [4]: 92.0% ± 12.6% of the initial concentration remaining after 4 h
not cleaved [5]: 95.7% ± 1.6% remaining after 4 h
